Series [1] in a line: Cytotoxicity against HGF cells assessed as cell proliferation at <10 uM incubated for 24 hrs by MTT assay. It counts as cell-based. The conditions noted are these: human. A general note: Tetrazolium dyes change colour on reduction, which living cells bring about.
Series [2] can be described thus: Cytotoxicity against HGF cells assessed as reduction in cell proliferation at >50 uM incubated for 24 hrs by MTT assay. It counts as cell-based. The conditions noted are these: human.
The subject of series [3] is HGF. Briefly: Inhibition of IL-6/soluble IL-6 receptor signaling-induced VEGF secretion in HGF cells pre-incubated for 30 mins before IL-6/soluble IL-6 receptor stimulation for 24 hrs by ELISA method. It counts as cell-based. The conditions noted are these: Homo sapiens. (In general: In an ELISA, binding on a coated surface is turned into a signal by an enzyme label.)

Series [4] concerns HGF. Briefly: Inhibition of IL-6/soluble IL-6 receptor signaling-induced STAT3 phosphorylation in HGF cells pre-incubated at 10 to 20 uM for before IL-6/soluble IL-6 receptor stimulation for 5 mins by Western blotting method. In kind it is cell-based. The settings on record: Homo sapiens.
For series [5], the system named is HGF. Briefly: Inhibition of IL-6/soluble IL-6 receptor signaling-induced ERK1/2 phosphorylation in HGF cells pre-incubated at 10 to 20 uM for before IL-6/soluble IL-6 receptor stimulation for 5 mins by Western blotting method. In kind it is cell-based. The settings on record: Homo sapiens. (Immunoblotting shows a protein as a band on a membrane.)
Series [6] has as its system HGF. Description: Inhibition of IL-6/soluble IL-6 receptor signaling-induced JNK1/2 phosphorylation in HGF cells pre-incubated at 10 to 20 uM for before IL-6/soluble IL-6 receptor stimulation for 5 mins by Western blotting method. In kind it is cell-based. The conditions noted are these: Homo sapiens.
Series [7] concerns HGF. Briefly: Inhibition of endogenous VEGF secretion in HGF cells at 0.01 to 10 uM by ELISA method. It counts as functional, cell-based. The settings on record: Homo sapiens.

Calls of active or inactive are those of the source. No cut-off for these calls is given here.

Consider `C/C=C/C1=CC(=O)[C@H](O)[C@H]1O`, for which the results for the Activity entry in series [1] and in series [2] were “Non-toxic” and “Toxic”, respectively. For the same compound, the inhibition result in series [3] is “Dose-dependent effect”. Besides, the inhibition result in series [4], in series [5] and in series [6] was “Active” in each case. The inhibition entry in series [7] was “inactive”.

Values taken from ChEMBL document CHEMBL3351591, “Synthetic (+)-terrein suppresses interleukin-6/soluble interleukin-6 receptor induced-secretion of vascular endothelial growth factor in human gingival fibroblasts” (Bioorg Med Chem, 2014).
